Reference: patent publication US20140249135A1, “PIM KINASE INHIBITORS AND METHODS OF THEIR USE” (NOVARTIS AG, priority 2007, published 2014)
Read-outs that look alike come from different tables or passages of the source.

Experiments:
Assay type in all cases: biochemical
Pim1 kinase = Pim1 kinase (Homo sapiens, UniProt P11309); experiment: Pim1 ATP depletion assay;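 also: Luciferase-luciferin luminescence readout of residual ATP after PIM1 transfers phosphate to a peptide substrate, 40 µM ATP added, reaction run to roughly half ATP consumption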
Pim2 kinase = Pim2 kinase (Homo sapiens, UniProt Q9P1W9); experiment: Pim2 ATP depletion assay;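 also: Luciferase-based luminescent readout of ATP remaining after PIM2 phosphorylates a BAD peptide, final 5 nM enzyme, 4 µM ATP, 10 µM peptide, 2.5% DMSO, run to roughly half ATP consumption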
Pim3 kinase = Pim3 kinase (Homo sapiens, UniProt Q86V86); experiment: Pim3 ATP depletion assay
[1] = target: T1, human full length PKCE enzyme (Homo sapiens, UniProt Q02156); experiment: In vitro PKCE assay; details: 10 nM enzyme, 40 uM peptide substrate, 20 uM ATP, KinaseGlo Plus readout; read-out: PKCε IC50
T1 construct: human full length PKCE enzyme purchased from InVitrogen; purchased InVitrogen
T1 sequence (Q02156 1-737): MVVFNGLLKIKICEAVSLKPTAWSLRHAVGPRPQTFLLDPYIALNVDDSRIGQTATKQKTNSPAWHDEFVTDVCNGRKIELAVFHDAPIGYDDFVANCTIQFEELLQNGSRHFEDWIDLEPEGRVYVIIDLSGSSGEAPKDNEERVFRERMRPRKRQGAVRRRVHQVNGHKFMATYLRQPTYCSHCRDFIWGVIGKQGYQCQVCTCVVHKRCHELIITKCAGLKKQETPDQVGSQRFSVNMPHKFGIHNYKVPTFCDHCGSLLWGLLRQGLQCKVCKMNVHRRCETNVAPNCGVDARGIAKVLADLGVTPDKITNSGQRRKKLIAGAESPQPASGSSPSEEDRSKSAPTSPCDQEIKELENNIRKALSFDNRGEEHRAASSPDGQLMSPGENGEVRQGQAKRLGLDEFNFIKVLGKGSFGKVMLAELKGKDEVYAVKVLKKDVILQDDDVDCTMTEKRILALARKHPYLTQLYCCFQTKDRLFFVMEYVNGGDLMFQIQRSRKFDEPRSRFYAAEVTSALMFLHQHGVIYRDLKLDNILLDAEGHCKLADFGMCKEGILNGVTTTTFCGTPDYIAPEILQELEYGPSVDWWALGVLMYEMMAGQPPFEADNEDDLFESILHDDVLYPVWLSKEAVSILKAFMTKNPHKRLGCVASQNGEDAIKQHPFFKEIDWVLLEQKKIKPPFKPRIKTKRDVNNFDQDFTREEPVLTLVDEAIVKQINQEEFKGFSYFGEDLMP

[2] = Pim1 ATP depletion assay, read-out: IC50 (μM) PIM1
[3] = Pim1 ATP depletion assay, read-out: PIM1 IC50

Chain of Pim2 kinase (Q9P1W9 whole entry): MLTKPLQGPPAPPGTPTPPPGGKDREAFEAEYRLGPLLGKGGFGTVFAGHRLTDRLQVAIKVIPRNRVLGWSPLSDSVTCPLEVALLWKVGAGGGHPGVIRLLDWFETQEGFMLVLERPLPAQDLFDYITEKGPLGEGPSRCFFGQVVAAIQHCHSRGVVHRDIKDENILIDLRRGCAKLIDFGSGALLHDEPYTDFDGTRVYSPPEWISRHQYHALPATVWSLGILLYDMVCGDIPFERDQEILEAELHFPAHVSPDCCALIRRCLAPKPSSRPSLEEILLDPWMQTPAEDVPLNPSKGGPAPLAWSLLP
Chain of Pim1 kinase (P11309 whole entry): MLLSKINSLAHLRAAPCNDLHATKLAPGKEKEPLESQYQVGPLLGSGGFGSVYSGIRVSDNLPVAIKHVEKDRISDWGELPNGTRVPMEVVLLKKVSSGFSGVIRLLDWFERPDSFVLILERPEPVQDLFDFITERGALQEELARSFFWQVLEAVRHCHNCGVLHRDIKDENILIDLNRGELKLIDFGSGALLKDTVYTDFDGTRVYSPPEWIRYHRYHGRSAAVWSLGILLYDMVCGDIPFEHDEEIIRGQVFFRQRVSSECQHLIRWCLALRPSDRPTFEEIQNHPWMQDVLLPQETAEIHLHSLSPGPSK

Structure (SMILES) | IC50 (Pim1 kinase; [2]) | IC50 (Pim2 kinase; read-out: IC50 (μM) PIM2) | IC50 (Pim3 kinase; read-out: IC50 (μM) PIM3) | IC50 [1] | IC50 (Pim1 kinase) | IC50 (Pim1 kinase; [3]) | IC50 (Pim2 kinase; read-out: PIM2 IC50) | IC50 (Pim3 kinase; read-out: PIM3 IC50)
Nc1ncc(-c2ccccc2OC(F)(F)F)nc1C(=O)Nc1[nH]c(=O)ncc1N1CCCC(N)C1 (centres unmarked) [Example 405, 3-amino-6-(2-trifluoro-methoxy-phenyl)-pyrazine-2-carboxylic acid [5-(3-amino-piperidin-1-yl)-2-oxo-2,3-dihydro-pyrimidin-4-yl]-amide] | < 1 µM | < 1 µM | < 1 µM | 10 to 25 µM | – | – | – | –
NC[C@H]1CCCN1c1ccncc1NC(=O)c1nccnc1N [Example 192, 3-amino-N-{4-[(2R)-2-(amino-methyl)pyrrolidin-1-yl]pyridin-3-yl}pyrazine-2-carboxamide] | > 25 µM | > 25 µM | > 25 µM | > 25 µM | – | – | – | –
Nc1ncc(-c2ccccc2Cl)nc1C(=O)Nc1[nH]c(=O)ncc1N1CCCCC1 [Example 595, 3-amino-6-(2-chloro-phenyl)-pyrazine-2-carboxylic acid (2-oxo-5-piperidin-1-yl-2,3-dihydro-pyrimidin-4-yl)-amide] | – | – | – | > 25 µM | – | < 1 µM | < 1 µM | < 1 µM
Nc1nccnc1C(=O)Nc1[nH]c(=O)ncc1-c1ccco1 [Example 136, 3-amino-N-[5-(2-furyl)-2-oxo-2,3-dihydropyrimidin-4-yl]-pyrazine-2-carboxamide] | < 1 µM | < 1 µM | < 1 µM | 1 to 10 µM | – | – | – | –
NCCC(=O)N1CCN(c2cnc(=O)[nH]c2NC(=O)c2nc(Br)cnc2N)CC1 [Example 241, 3-amino-N-{5-[4-(3-amino-propanoyl)piperazin-1-yl]-2-oxo-2,3-dihydropyrimidin-4-yl}-6-bromopyrazine-2-carboxamide] | < 1 µM | < 1 µM | < 1 µM | 1 to 10 µM | – | – | – | –
NCCOc1ccncc1NC(=O)c1nccnc1N [Example 194, 3-amino-N-[4-(2-amino-ethoxy)pyridin-3-yl]pyrazine-2-carboxamide] | > 25 µM | > 25 µM | > 25 µM | > 25 µM | – | – | – | –
Nc1nccnc1C(=O)Nc1[nH]c(=O)ncc1N1CCC(F)(F)CC1 [Example 156, 3-amino-N-[5-(4,4-difluoro-piperidin-1-yl)-2-oxo-2,3-dihydropyrimidin-4-yl]pyrazine-2-carboxamide] | < 1 µM | < 1 µM | < 1 µM | 1 to 10 µM | – | – | – | –
Nc1nccnc1C(=O)Nc1[nH]c(=O)ncc1-c1ccccn1 [Example 140, 3-amino-N-(2-oxo-5-pyridin-2-yl-2,3-dihydropyrimidin-4-yl)-pyrazine-2-carboxamide] | < 1 µM | < 1 µM | < 1 µM | 1 to 10 µM | – | – | – | –
Nc1cccnc1C(=O)Nc1[nH]c(=O)ncc1N1CCCC(N)C1 (centres unmarked) [Example 242, 3-amino-N-[5-(3-aminopiperidin-1-yl)-2-oxo-2,3-dihydro-pyrimidin-4-yl]pyridine-2-carboxamide] | < 1 µM | < 1 µM | < 1 µM | > 25 µM | – | – | – | –
Nc1nccnc1C(=O)Nc1[nH]c(=O)ncc1N1CCC(C(F)(F)F)CC1 [Example 152, 3-amino-N-{2-oxo-5-[4-(trifluoromethyl)piperidin-1-yl]-2,3-dihydropyrimidin-4-yl}-pyrazine-2-carboxamide] | < 1 µM | < 1 µM | < 1 µM | < 1 µM | – | – | – | –
Nc1ncc(-c2ccccc2C(F)(F)F)nc1C(=O)Nc1[nH]c(=O)ncc1N1CCCCC1 [Example 593, 3-amino-6-(2-trifluoromethyl-phenyl)-pyrazine-2-carboxylic acid (2-oxo-5-piperidin-1-yl-2,3-dihydro-pyrimidin-4-yl)-amide] | – | – | – | > 25 µM | – | < 1 µM | < 1 µM | < 1 µM
Nc1cnc(C(=O)Nc2cnccc2N2CCCCC2)c(N)n1 [Example 312, 3,5-diamino-N-(4-(piperidin-1-yl)pyridin-3-yl)pyrazine-2-carboxamide] | < 1 µM | 1 to 10 µM | < 1 µM | 10 to 25 µM | – | – | – | –
Nc1ncc(-c2ccccc2OC(F)(F)F)nc1C(=O)Nc1[nH]c(=O)ncc1N1CCCCC1 [Example 596, 3-amino-6-(2-trifluoromethoxy-phenyl)-pyrazine-2-carboxylic acid (2-oxo-5-piperidin-1-yl-2,3-dihydro-pyrimidin-4-yl)-amide] | – | – | – | > 25 µM | – | < 1 µM | < 1 µM | < 1 µM
N#Cc1ccc(N2CCCCC2)c(NC(=O)c2nccnc2N)c1 [Example 171, 3-amino-N-(5-cyano-2-(piperidin-1-yl)phenyl)pyrazine-2-carboxamide] | < 1 µM | 1 to 10 µM | < 1 µM | 10 to 25 µM | – | – | – | –
Nc1ncc(Br)nc1C(=O)Nc1[nH]c(=O)ncc1N1CCC(C(F)(F)F)CC1 [Example 153, 3-amino-6-bromo-N-{2-oxo-5-[4-(trifluoromethyl)piperidin-1-yl]-2,3-dihydropyrimidin-4-yl}-pyrazine-2-carboxamide] | < 1 µM | < 1 µM | < 1 µM | > 25 µM | – | – | – | –
Nc1ncc(Br)nc1C(=O)Nc1[nH]c(=O)ncc1-c1ccco1 [Example 141, 3-amino-6-bromo-N-[5-(2-furyl)-2-oxo-2,3-dihydro-pyrimidin-4-yl]pyrazine-2-carboxamide] | < 1 µM | < 1 µM | < 1 µM | 1 to 10 µM | – | – | – | –
Nc1nccnc1C(=O)Nc1cncnc1N1CCCCC1 [Example 128, 3-amino-N-(4-piperidin-1-yl-pyrimidin-5-yl)pyrazine-2-carboxamide] | 1 to 10 µM | > 25 µM | 10 to 25 µM | > 25 µM | – | – | – | –
COc1ccccc1-c1cnc(N)c(C(=O)Nc2[nH]c(=O)ncc2N2CCCCC2)n1 [Example 594, 3-amino-6-(2-methoxy-phenyl)-pyrazine-2-carboxylic acid (2-oxo-5-piperidin-1-yl-2,3-dihydro-pyrimidin-4-yl)-amide] | – | – | – | > 25 µM | – | < 1 µM | < 1 µM | < 1 µM

Other lines, results leading:

IC50 (Pim1 kinase; [2]) | IC50 (Pim2 kinase; read-out: IC50 (μM) PIM2) | IC50 (Pim3 kinase; read-out: IC50 (μM) PIM3) | IC50 [1] | IC50 (Pim1 kinase) | IC50 (Pim1 kinase; [3]) | IC50 (Pim2 kinase; read-out: PIM2 IC50) | IC50 (Pim3 kinase; read-out: PIM3 IC50) | Structure (SMILES)
< 1 µM | < 1 µM | < 1 µM | < 1 µM | – | – | – | – | NCC1CCCN(c2cnc(=O)[nH]c2NC(=O)c2nc(Br)cnc2N)C1 (centres unmarked) [Example 240, 3-amino-N-{5-[3-(aminomethyl)-piperidin-1-yl]-2-oxo-2,3-dihydropyrimidin-4-yl}-6-bromopyrazine-2-carboxamide]
< 1 µM | < 1 µM | < 1 µM | < 1 µM | – | – | – | – | Nc1nccnc1C(=O)Nc1[nH]c(=O)ncc1N1CCCC(F)C1 (centres unmarked) [Example 154, 3-amino-N-[5-(3-fluoro-piperidin-1-yl)-2-oxo-2,3-dihydropyrimidin-4-yl]pyrazine-2-carboxamide]
– | > 25 µM | 1 to 10 µM | < 1 µM | < 1 µM | – | – | – | Nc1nccnc1C(=O)Nc1cnccc1N1CCNCC1 [Example 191, 3-amino-N-(4-piperazin-1-yl-pyridin-3-yl)pyrazine-2-carboxamide]
– | 1 to 10 µM | < 1 µM | < 1 µM | < 1 µM | – | – | – | NCC(=O)N1CCN(c2ccncc2NC(=O)c2nccnc2N)CC1 [Example 189, 3-amino-N-{4-[4-(amino-acetyl)piperazin-1-yl]pyridin-3-yl}pyrazine-2-carboxamide]
< 1 µM | < 1 µM | < 1 µM | < 1 µM | – | – | – | – | Nc1nccnc1C(=O)Nc1[nH]c(=O)ncc1-c1cccs1 [Example 137, 3-amino-N-[2-oxo-5-(2-thienyl)-2,3-dihydropyrimidin-4-yl]-pyrazine-2-carboxamide]
< 1 µM | < 1 µM | < 1 µM | < 1 µM | – | – | – | – | NCCC(=O)N1CCN(c2ccncc2NC(=O)c2nc(Br)cnc2N)CC1 [Example 178, 3-amino-N-{4-[4-(3-amino-propanoyl)piperazin-1-yl]-pyridin-3-yl}-6-bromopyrazine-2-carboxamide]
< 1 µM | < 1 µM | < 1 µM | < 1 µM | – | – | – | – | Cn1cccc1-c1cnc(=O)[nH]c1NC(=O)c1nccnc1N [Example 139, 3-amino-N-[5-(1-methyl-1H-pyrrol-2-yl)-2-oxo-2,3-dihydro-pyrimidin-4-yl]pyrazine-2-carboxamide]
< 1 µM | < 1 µM | < 1 µM | < 1 µM | – | – | – | – | N#Cc1ccccc1-c1cnc(N)c(C(=O)Nc2[nH]c(=O)ncc2N2CCCC(N)C2)n1 (centres unmarked) [Example 403, 3-amino-6-(2-cyano-phenyl)-pyrazine-2-carboxylic acid [5-(3-amino-piperidin-1-yl)-2-oxo-2,3-dihydro-pyrimidin-4-yl]-amide]
